Patent US20190054057A1, “IMMUNE BOOSTING DIETARY COMPOUNDS FOR DISEASE CONTROL AND PREVENTION” (THE BOARD OF REGENTS FOR OKLAHOMA STATE UNIVERSITY OFFICE …, priority 2016, published 2019)
Where a SMILES comes first, the peptide text is derived from it. The star is where a group is joined. Cbz = O=C(OCc1ccccc1)*

What was measured:
Assay type in all cases: cell-based
[1] = test system: AvBD9; assay: AvBD9 gene expression in chicken HD11 macrophage cells (real-time RT-PCR); details: for Induction of AvBD9 gene expression: compound alone, different concentrations; for Effect of pathway inhibitor on lactose-induced AvBD9 expression: 1 h inhibitor pretreatment, then 0.2 M lactose 24 h; for Induction of AvBD9 gene expression by sugars: 0.2 M, up to 48 h; for Efficacy of AvBD9 induction compared with butyrate: 24 h stimulation; for Synergy with butyrate in AvBD9 induction: 2 mM butyrate with 0.2 M sugar, 12 h
Protocol: (§1) Chicken HD11 macrophage cell line was obtained from USDA-Agricultural Research Services (ARS), and chicken HTC macrophage cell line was secured from USDA-ARS. Both HD11 and HTC macrophage cells were propagated in RPMI 1640 containing 10% fetal bovine serum (FBS), 100 μg/ml streptomycin, and 100 U/ml penicillin. Peripheral blood mononuclear cells (PBMCs) were isolated from EDTA-anticoagulated chicken blood by gradient centrifugation with Histopaque 1077 (Sigma) following manufacturer's instructions. Briefly, chicken blood was overlaid onto Histopaque 1077 (Sigma) at 1:1 ratio, and centrifuged at 400×g for 30 min. Interphase containing PBMCs was aspirated and washed 3 times with PBS at 250×g for 10 min. Cell pellet was re-suspended with RPMI 1640, supplemented with 10% FBS, 100 μg/ml streptomycin, 100 U/ml penicillin, and 20 mM HEPES. After being seeded overnight at 2×10^6/well in 6-well tissue culture plates, cells were treated with different concentrations of chemicals. For signaling studies, cells were pre-treated with different signaling agonists or inhibitors for 1 h, followed by stimulation with sodium butyrate or its structural analogs for another 24 h. Cells were then lysed in RNAzol (Molecular Research Center, Cincinnati, Ohio) for RNA extraction.
(§2) Total RNA was extracted from chicken cells and tissues using RNAzol RT (Molecular Research Center) and quantitated using Nanodrop 1000 (Nanodrop Products, Wilmington, Del.). RNA (0.3 μg) was reverse transcribed in 4-μl reactions using Maxima First Strand cDNA Synthesis Kit (Thermo Fisher Scientific, Pittsburgh, Pa.) according to the manufacturer's instructions. The cDNA was then diluted 10 times with RNase-free water prior to real-time PCR analysis of AvBD9 and GAPDH as were described previously. The primers used for AvBD9 primers were […] (SEQ ID NO: 1, forward) and […] (SEQ ID NO: 2, reverse), whereas the primers for chicken glyceraldehyde-3-phosphate dehydrogenase (GAPDH) were […] (SEQ ID NO: 3, forward) and […] (SEQ ID NO: 4, reverse). QuantiTect SYBR Green PCR Kit (Qiagen, Valencia, Calif.) was used in 10 μl reactions with 4 and 1 μl of diluted cDNA for AvBD9 and GAPDH, respectively. Real-time PCR was performed with an initial activation at 95° C. for 10 min, followed by 40 cycles at 94° C. for 15 sec, 55° C. for 20 sec and 72° C. for 30 sec. Melting curve analysis was carried out to confirm the specificity of PCR amplification. Relative fold change in the AvBD9 gene expression was calculated using the ΔΔCt method normalized against the GAPDH levels.

[2] = test system: AvBD9; assay: AvBD9 gene expression in chicken peripheral blood mononuclear cells (PBMCs) (real-time RT-PCR); details: for Effect of pathway inhibitor on butyrate-induced AvBD9 expression: 1 h inhibitor pretreatment, then 2 mM sodium butyrate 24 h; for Effect on AvBD9 induction, compound alone: without butyrate; for AvBD9 gene expression, maximum fold increase, compound alone: 50 to 250 μM, dose-dependent
Protocol: as §1, §2

[3] = test system: AvBD9; assay: as above; details: 1 h inhibitor pretreatment, then 10 μM quercetin 24 h
[4] = test system: AvBD9; assay: AvBD9 gene expression in chicken jejunal explants (real-time RT-PCR); details: 2 mM butyrate and/or 0.1 M lactose, 24 h
Protocol: A segment of chicken jejunum was harvested from 1- to 2-week-old broiler chickens, washed thoroughly in cold PBS containing 100 μg/ml of gentamicin, 100 U/ml penicillin, and 100 μg/ml streptomycin, and then cut into a series of 0.5-cm-long segments. Jejunal segments were placed individually in 6-well plates and cultured in 4 ml RPMI 1640 containing 10% FBS, 20 mM HEPES, 100 U/ml penicillin, 100 μg/ml streptomycin, and 100 μg/ml gentamicin. […] Jejunal segments were homogenized in RNAzol RT for RNA extraction.
(§3) The cDNA was then diluted 10 times with RNase-free water prior to real-time PCR analysis of AvBD9 and GAPDH as were described previously. The primers used for AvBD9 primers were […] (SEQ ID NO: 1, forward) and […] (SEQ ID NO: 2, reverse), whereas the primers for chicken glyceraldehyde-3-phosphate dehydrogenase (GAPDH) were […] (SEQ ID NO: 3, forward) and […] (SEQ ID NO: 4, reverse). QuantiTect SYBR Green PCR Kit (Qiagen, Valencia, Calif.) was used in 10 μl reactions with 4 and 1 μl of diluted cDNA for AvBD9 and GAPDH, respectively.

[5] = test system: acetyl-histone 4 (Ac-H4); assay: Histone 4 acetylation in chicken HD11 cells (immunoblotting, Ac-H4); details: 2 mM butyrate and/or 0.2 M lactose, 6 h
Protocol: After stimulation with various compounds, chicken HD11 cells were washed with PBS and lysed in the RIPA lysis buffer (Santa Cruz Biotechnology, Dallas, Tex.). Protein concentration was measured by the Bradford Assay (Bio-Rad, Hercules, Calif.). For the determination of histone 4 acetylation levels, 20 μg of proteins was separated by 12.5% SDS-PAGE gel and then transferred to a PVDF membrane. After overnight blocking in the blocking buffer at 4° C., the membrane was incubated with a primary rabbit antibody against acetyl-histone 4 (Ac-H4) (Cell Signaling, #8647) in the blocking buffer for 1 h at room temperature. After three washes, the membrane was incubated with an alkaline phosphatase-conjugated goat anti-rabbit IgG antibody (Sigma-Aldrich, St. Louis, Mo.) for 45 min at room temperature. Another membrane was prepared in parallel, but incubated with a rabbit antibody against β-Actin (#A2103) to reveal a similar amount of protein loading. The signaling was visualized by incubation with the ECL reagent (Santa Cruz Biotechnology).

[6] = test system: AvBD9; assay: AvBD9 gene expression in chicken HTC macrophage cells (real-time RT-PCR)
Protocol: For signaling studies, cells were pre-treated with different signaling agonists or inhibitors for 1 h, followed by stimulation with sodium butyrate or its structural analogs for another 24 h.
as §3

CCCC(=O)OC/C=C/c1ccccc1 [trans-cinnamyl butyrate] was tested, and the “Induction of AvBD9 gene expression” value ([1]; 24 h) was “dose-dependently induced”.

For COc1cccc(-c2cc(=O)c3ccccc3o2)c1N [PD98059, reference compound], the “Effect of pathway inhibitor on lactose-induced AvBD9 expression” value [1] was “synergized substantially” and the “Effect of pathway inhibitor on butyrate-induced AvBD9 expression” value [2] was “strong synergistic AvBD9 induction”.

O=C(CO)[C@@H](O)[C@H](O)[C@H](O)CO [fructose] was tested, and the “Induction of AvBD9 gene expression by sugars” value (from here on “Induction … by sugars”) [1] was “stimulated AvBD9 gene expression in a time-dependent manner”.

With CCCC(CCC)C(=O)[O-].[Na+] [sodium valproate, reference compound] the “Induction of AvBD9 gene expression” value ([1]; 24 h) was “dose-dependent stimulation”.

CCCCCCCCCCCCCCCc1cccc(O)c1C(=O)O [anacardic acid] was tested, and the “Effect on AvBD9 induction, compound alone” value [2] was “modest effect”.

With C[C@H]1O[C@@H](n2cnc3c(N)ncnc32)C[C@@H]1O [DDA, 2′-5′-dideoxyadenosine] the “Effect of pathway inhibitor on butyrate-induced AvBD9 expression” value [2] was “strikingly strong, dose-dependent increase”.

With CCCC(=O)OCC(COC(=O)CCC)OC(=O)CCC [glyceryl tributyrate, Glyceryl tributyrate] the “Efficacy of AvBD9 induction compared with butyrate” value (“Efficacy … compared with butyrate” below) [1] was “comparable efficacy to butyrate” and the “Induction of AvBD9 gene expression” value ([1]; 24 h) was “dose-dependently induced”.

For C[S+]([O-])c1ccc(-c2nc(-c3ccncc3)c(-c3ccc(F)cc3)[nH]2)cc1 (centres unmarked) [SB203580, reference compound], the “Effect of pathway inhibitor on lactose-induced AvBD9 expression” value [1] was “no influence” and the “Effect of pathway inhibitor on butyrate-induced AvBD9 expression” value [2] was “substantial, but not complete reduction”.

CCCC(=O)OCc1ccccc1 [benzyl butyrate, Benzyl butyrate] was tested, and the “Efficacy … compared with butyrate” value [1] was “comparable efficacy to butyrate” and the “Induction of AvBD9 gene expression” value ([1]; 24 h) was “dose-dependently induced”.

With O=C(O)CCc1ccccc1 [hydrocinnamic acid, Hydrocinnamic acid] the “Induction of AvBD9 gene expression” value ([1]; 24 h) was “dose-dependently induced”.

CS(=O)(=O)Nc1ccc([N+](=O)[O-])cc1Oc1ccccc1 [nimesulide] was tested, and the “AvBD9 gene expression, maximum fold increase, compound alone” value [2] was “approximately 70 fold”.

In the case of CCCC(=O)Nc1ncnc2c1ncn2[C@@H]1O[C@@H]2COP(=O)(O)O[C@H]2[C@H]1OC(=O)CCC [dibutyryl cAMP, reference compound], the “Efficacy … compared with butyrate” value [1] is reported as “comparable efficacy to butyrate” and the “Induction of AvBD9 gene expression” value ([1]; 24 h) is reported as “dose-dependently induced”.

For S=C(S)N1CCCC1 [PDTC], the “Effect of pathway inhibitor on quercetin-mediated AvBD9 expression” value [3] was “did not show much effect”.

With O=C[C@H](O)[C@@H](O)[C@@H](O)[C@H](O)CO [galactose] the “Synergy with butyrate in AvBD9 induction” value [1] was “clear synergy” and the “Induction … by sugars” value [1] was “stimulated AvBD9 gene expression in a time-dependent manner”.

CCCC(=O)[O-].[Na+] [butyrate, Sodium butyrate] was tested, and the “AvBD9 induction, fold” value [4] was 100 fold, the “AvBD9 induction, peak fold” value ([1]; 2 mM butyrate alone, 24 h) was “approximately 1,750 fold” and the “Histone 4 acetylation” value [5] was “minimum histone 4 acetylation”.

For CN(C)c1ccc(C(=O)NCCCCCC(=O)NO)cc1 [CAY10398, reference compound], the “Induction of AvBD9 gene expression” value ([1]; 24 h) was “dose-dependent stimulation”.

In the case of Nc1ccc2ncnc(NCCc3ccc(Oc4ccccc4)cc3)c2c1 [QNZ, reference compound], the “Effect of pathway inhibitor on lactose-induced AvBD9 expression” value [1] is reported as “no influence”.

For O=c1c(O)c(-c2ccc(O)c(O)c2)oc2cc(O)cc(O)c12 [quercetin], the “Reduction of AvBD9 induction at 48 h relative to 24 h” value ([6]; 40 μM quercetin) was 210 fold, the “AvBD9 expression, fold increase at peak” value ([6]; 40 μM quercetin, 24 h) was “approximately 500 fold” and the “Concentration giving peak AvBD9 response” value ([6]; quercetin alone, 24 h) was 40 µM. For the same compound, the “Induction of AvBD9 gene expression (dose dependence)” value ([6]; quercetin alone, 24 h) was “dose-dependent induction”, the “AvBD9 expression, fold increase” value ([2]; 40 μM quercetin alone, 24 h) was “approximately 6,500 fold” and the “Induction of AvBD9 (dose dependence)” value ([2]; quercetin alone, 24 h) was “dose-dependently induced”.

For C=C(C)[C@@H](CC=C(C)C)C[C@@]12C[C@@H](CC=C(C)C)C(C)(C)[C@@](CC=C(C)C)(C(=O)C(C(=O)c3ccc(O)c(O)c3)=C1O)C2=O [garcinol], the “AvBD9 induction, peak fold increase, compound alone” value ([2]; garcinol without butyrate) was “approximately 7 fold”.

With CC(/C=C/C(=O)NO)=C\[C@@H](C)C(=O)c1ccc(N(C)C)cc1 [trichistatin A, reference compound] the “Induction of AvBD9 gene expression” value ([1]; 24 h) was “dose-dependent stimulation”.

For CC(C)C[C@@H](C=O)NC(=O)[C@H](CC(C)C)NC(=O)[C@H](CC(C)C)NC(=O)OCc1ccccc1 [MG132] (Cbz-Leu-Leu-Leu-aldehyde), the “Effect of pathway inhibitor on butyrate-induced AvBD9 expression” value [2] was “nearly complete abolishment”.

In the case of OC[C@@H](O)[C@@H](O)[C@H](O)[C@H](O)CO [mannitol], the “Synergy with butyrate in AvBD9 induction” value [1] is reported as “comparably synergy”.

For OC[C@H]1O[C@H](O[C@H]2O[C@H](CO)[C@@H](O)[C@H](O)[C@H]2O)[C@H](O)[C@@H](O)[C@@H]1O [trehalose], the “Synergy with butyrate in AvBD9 induction” value [1] was “clear synergy”.

In the case of O=C(CCCCCCC(=O)Nc1ccccc1)NO [SAHA, suberoylanilide hydroxamic acid, reference compound], the “Induction of AvBD9 gene expression” value ([1]; 24 h) is reported as “dose-dependent stimulation”.

With OC[C@H]1O[C@@H](O[C@H]2[C@H](O)[C@@H](O)C(O)O[C@@H]2CO)[C@H](O)[C@@H](O)[C@H]1O (some centres unmarked) [lactose] the “AvBD9 induction, fold” value [4] was 15 fold, the “AvBD9 induction, maximum fold” value ([1]; 0.2 M lactose alone, 6 h) was 350 fold and the “Induction … by sugars” value [1] was “stimulated AvBD9 gene expression in a time-dependent manner”. For the same compound, the “Histone 4 acetylation” value [5] was “no impact”.

Nc1ncnc2c1ncn2C1CCCO1 (centres unmarked) [SQ22536, reference compound] was tested, and the “Effect of pathway inhibitor on lactose-induced AvBD9 expression” value [1] was “no influence”.

O=C(O)c1cccnc1Nc1cccc(C(F)(F)F)c1 [niflumic acid] was tested, and the “AvBD9 gene expression, maximum fold increase, compound alone” value [2] was ~14,000 fold.

For Oc1ccc(C=Cc2cc(O)cc(O)c2)cc1 [resveratrol], the “Effect on AvBD9 induction, compound alone” value [2] was “modest effect”.
